# Results reported in PubChem BioAssay AID732 (Emory University Molecular Libraries Screening Center, 2007).
# Several values for one entry are separate records, joined by “and”; a condition that tells them apart may be missing. Equal values may be shown once. Activity calls are given as the source filed them. How the calls were made is not given here.
# System: in vivo angiogenesis, blood vessel count
# Assay: reduction of blood vessel formation in vivo – HTS, in vivo study (AID 732);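 further: zebrafish embryos dosed at one day post fertilization; 0% = reference inhibitor and 100% = plate mean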
# Conditions: stronger effect = lower value;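 tested at 30 µM in the well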
row,SMILES,vessel count % control
1,CC12NC(Cc3ccccc31)c1ccccc12 (stereo unspecified),76.2% (inactive)
2,CC1=C(/C=C/C(C)=C/C=C/C(C)=C/C(=O)Nc2ccc(O)cc2)C(C)(C)CCC1,96.8% (inactive)
3,[Li+],0% (inactive)
4,O=C1C(c2c(O)[nH]c3ccc(S(=O)(=O)O)cc23)=Nc2ccccc21,101% (inactive)
5,CCCCC[C@H](CC(=O)NO)C(=O)N[C@H](C(=O)N1CCC[C@H]1CO)C(C)C,103% (inactive)
6,C[N+](C)(C)CCCCCCCCCC[N+](C)(C)C,100% (inactive)
7,CN[C@H](CC(=O)O)C(=O)O,86.7% (inactive)
8,CC(CCc1ccccc1)NC(C)C(O)c1ccc(O)cc1 (stereo unspecified),98.4% (inactive)
9,O=C1C(SCCO)=C(SCCO)C(=O)c2ccccc21,0% (inactive)
10,CN(C)C(=O)Oc1ccc[n+](C)c1,110% (inactive)
11,Cc1cnc(NC(=O)C2=C(O)c3ccccc3S(=O)(=O)N2C)s1,136% (inactive)
12,CN1CCN(C(=O)OC2c3nccnc3C(=O)N2c2ccc(Cl)cn2)CC1 (stereo unspecified),105% (inactive)
13,CCCOc1ccccc1-c1nc2n[nH]nc2c(=O)[nH]1,119% (inactive)
14,O=C(c1cc(O)c(O)c([N+](=O)[O-])c1)c1ccccc1F,116% (inactive)
15,COC(=O)C1=C(C)NC(C)=C([N+](=O)[O-])C1c1ccccc1C(F)(F)F (stereo unspecified),92.2% (inactive)
16,NCCS,106% (inactive)
17,O=c1cc(-c2ccc(O)cc2)oc2cc(O)cc(O)c12,87.4% (inactive)
18,Nc1nc2c(ncn2COC(CO)CO)c(=O)[nH]1,84.5% (inactive)
19,C[C@]12C[C@H](O)[C@H]3[C@@H](CCC4=CC(=O)CC[C@@]43C)[C@@H]1CC[C@@H]2C(=O)CO,103% (inactive)
20,COc1cc(/C=C(\C#N)C(=O)c2ccc(O)c(O)c2)cc(I)c1O,94.3% (inactive)
21,COc1cc(-c2ccc(=O)[nH]n2)ccc1OC(F)F,75.5% (inactive)
22,COc1ccccc1N1CCN(CC(O)COc2cccc3ccccc23)CC1 (stereo unspecified),91.2% (inactive)
23,C[N+](C)(C)CCOC(=O)CBr,95.6% (inactive)
24,Nc1nnc(-c2cccc(Cl)c2Cl)c(N)n1,62.2% (inactive)
25,NCC(O)c1cc(O)c(O)cc1F (stereo unspecified),87.4% (inactive)
26,Cn1cc(C(F)(F)F)nc1-c1ccc(OCC(O)CNCCOc2ccc(O)c(C(N)=O)c2)cc1 (stereo unspecified),82.4% (inactive)

row,SMILES,vessel count % control
1,CN1C2CCC1CC(OC(c1ccccc1)c1ccc(Cl)cc1)C2 (stereo unspecified),98.7% (inactive)
2,O=C(O)C1C2CCC(O2)C1C(=O)O (stereo unspecified),98.3% (inactive)
3,COc1ccc2[nH]cc(CCN)c2c1,108% (inactive)
4,Cc1nc(N=Nc2cc(S(=O)(=O)O)c3cc([N+](=O)[O-])cc(S(=O)(=O)O)c3c2)c(COP(=O)(O)O)c(C=O)c1O,93.5% (inactive)
5,CCCC(=O)NCCc1c2n(c3ccc(OC)cc13)Cc1ccccc1-2,111% (inactive)
6,O=C1C(c2c(O)[nH]c3c(Cl)ccc(Cl)c23)=Nc2ccc(Br)cc21,121% (inactive)
7,O=C(O)CNC(=O)C(CS)Cc1ccccc1 (stereo unspecified),117% (inactive)
8,CC(C)C(=O)Nc1ccc([N+](=O)[O-])c(C(F)(F)F)c1,113% (inactive)
9,CCCCNc1cc(C(=O)O)cc(S(N)(=O)=O)c1Oc1ccccc1,59.2% (inactive)
10,C[N+](C)(C)CCCCCC[N+](C)(C)C,115% (inactive) and 117% (inactive)
11,NCCCCCCCCCCN,146% (inactive)
12,N#CC(C#N)=C(N)/C(C#N)=C/c1ccc(O)cc1,93% (inactive)
13,CC1(C)CCC(NC(=O)[C@@H](N)CCC(=O)O)CC1,122% (inactive)
14,Oc1ccc2c3c1O[C@H]1c4[nH]c5ccccc5c4C[C@@]4(O)C(C2)N(CC2CC2)CCC314 (stereo partly specified),115% (inactive)
15,CC(C)(Oc1ccc(C2CC2(Cl)Cl)cc1)C(=O)O (stereo unspecified),96.9% (inactive)
16,Cn1cc(C2=C(c3ccc(Cl)cc3Cl)C(=O)NC2=O)c2ccccc21,0% (inactive)
17,OC1CCCCC1N1CCC(c2ccccc2)CC1 (stereo unspecified),99% (inactive)
18,O=NN(CCCl)C(=O)NCCCl,96.9% (inactive)
19,OC[C@H]1O[C@@H](n2cnc3c(NCCc4ccccc4)ncnc32)C(O)[C@H]1O (stereo partly specified),79.4% (inactive)
20,CNCCC=C1c2ccccc2CCc2ccccc21,103% (inactive)
21,C[C@]12C=CC(=O)C=C1CC[C@H]1[C@@H]3C[C@@H](O)[C@](O)(C(=O)CO)[C@@]3(C)C[C@H](O)[C@@]12F,129% (inactive)
22,CC(=O)NCCc1ccc(O)c(O)c1,105% (inactive)
23,C=CCN1CCc2cccc3c2[C@H]1Cc1ccc(O)c(O)c1-3,113% (inactive)
24,C[C@]12CC[C@H](O)CC1=CC[C@@H]1[C@@H]2CC[C@]2(C)C(=O)CC[C@@H]12,106% (inactive)
25,CCN1CCc2nc(N)oc2CC1,96.4% (inactive)
26,[N-]=[N+]=Nc1ccc(C(=O)CSC[C@H](NC(=O)CC[C@H](N)C(=O)O)C(=O)NCC(=O)O)cc1,91.6% (inactive)

row,SMILES,vessel count % control
1,Cc1ccc([N+](=O)[O-])cc1S(=O)(=O)N(C)C,108% (inactive)
2,COC(=O)C1=CCCN(C)C1,66% (inactive)
3,CC(=O)C(C)=O,99.7% (inactive)
4,S=C(NC1CCCCC1)N1CCC(c2cnc[nH]2)CC1,129% (inactive)
5,Cc1nc2n(c(=O)c1CCN1CCC(c3noc4cc(F)ccc34)CC1)CCCC2,104% (inactive)
6,Cc1ccc(Cl)c(Nc2ccccc2C(=O)O)c1Cl,90.3% (inactive)
7,O=c1c2ccccc2[se]n1-c1ccccc1,94.8% (inactive)
8,NC(=O)c1ncn([C@@H]2O[C@H](CO)[C@@H](O)[C@H]2O)c1O,94.8% (inactive)
9,FC(F)(F)c1cc(CO[C@H]2CCCN[C@H]2c2ccccc2)cc(C(F)(F)F)c1,91.5% (inactive)
10,CNCC(O)c1ccc(O)c(O)c1 (stereo unspecified),123% (inactive)
11,CC(N)[C@H](O)c1ccc(O)c(O)c1 (stereo partly specified),106% (inactive)
12,Cc1ccc(N(CC2=NCCN2)c2cccc(O)c2)cc1,77.7% (inactive)
13,COc1cc2c(cc1O)CC[C@@H]1[C@@H]2CC[C@]2(C)[C@@H](O)CC[C@@H]12,83.1% (inactive)
14,CC[C@@H](CO)NC(=O)[C@@H]1C=C2c3cccc4c3c(cn4C)C[C@H]2N(C)C1,70.9% (inactive)
15,O=C1NC(O)=NC1(c1ccccc1)c1ccccc1,106% (inactive)
16,COc1ccc2c(c1)C13CCCCC1C(C2)N(C)CC3 (stereo unspecified),108% (inactive)
17,NC(CCCP(=O)(O)O)C(=O)O (stereo unspecified),75.8% (inactive)
18,NC(=O)CN1CCCC1=O,99.2% (inactive)
19,O=C1C(c2c(O)[nH]c3ccc(F)cc23)=Nc2ccccc21,59% (inactive)
20,COc1ccc(CCN(C)CCCC(C#N)(c2ccc(OC)c(OC)c2)C(C)C)cc1OC (stereo unspecified),118% (inactive)
21,NOCC(=O)O,114% (inactive)
22,O=c1c2ccccc2nc2n1CCc1c-2[nH]c2ccccc12,64.3% (inactive)
23,COc1cccc(OC)c1OCCNCC1CSc2ccccc2O1 (stereo unspecified),71.1% (inactive)
24,CC(C)[C@@H]1NC(=O)[C@H](CCCCN)NC(=O)[C@@H](Cc2c[nH]c3ccccc23)NC(=O)[C@H](Cc2ccc(O)cc2)NC(=O)[C@H](C)N(C)C(=O)[C@H](Cc2ccccc2)NC1=O,101% (inactive)
25,CC(C(=O)O)c1cccc(C(=O)c2ccccc2)c1 (stereo unspecified),122% (inactive)
26,C1COC(NC(C2CC2)C2CC2)=N1,100% (inactive)

row,SMILES,vessel count % control
1,Nc1nc2c(nc(Br)n2C2OC3COP(=O)(O)O[C@@H]3C2O)c(=O)[nH]1 (stereo partly specified),110% (inactive)
2,COc1ccccc1N1CCN(CCN(C(=O)C2CCCCC2)c2ccccn2)CC1,87.8% (inactive)
3,CC1=NS(=O)(=O)c2cc(Cl)ccc2N1,116% (inactive)
4,CNCCC(Oc1ccc(C(F)(F)F)cc1)c1ccccc1 (stereo unspecified),74.2% (inactive)
5,NNCCc1ccccc1,104% (inactive)
6,CC[N+](CC)(CC)CCOc1cccc(OCC[N+](CC)(CC)CC)c1OCC[N+](CC)(CC)CC,101% (inactive)
7,O=C(O)Cc1ccc(O)c(O)c1,107% (inactive)
8,O=c1onc2n1-c1cc(Br)ccc1OC2,95.9% (inactive)
9,c1ccc2c(c1)OCC(C1=NCCN1)O2 (stereo unspecified),146% (inactive)
10,CCCCCCC(C)(C)c1ccc([C@@H]2C[C@H](O)CC[C@H]2CCCO)c(O)c1,100% (inactive)
11,NC(N)=NC(=O)c1nc(Cl)c(N)nc1N,117% (inactive)
12,NCCCCNS(=O)(=O)c1cccc2c(Cl)cccc12,107% (inactive)
13,NC(=O)CNCCC(c1ccccc1)c1ccccc1,119% (inactive)
14,CCS(=O)(=O)Nc1cccc(C(=C2CCCCC2)c2cnc[nH]2)c1,98.4% (inactive)
15,O=c1c(O)c(-c2cc(O)c(O)c(O)c2)oc2cc(O)cc(O)c12,87.9% (inactive)
16,NCCCCC(=O)O,84.3% (inactive)
17,Cc1cc2c(cc1Cl)N(C(=O)Nc1ccnc3ccccc13)CC2,108% (inactive)
18,CCc1c(C)[nH]c2c1C(=O)C(CN1CCOCC1)CC2 (stereo unspecified),93.5% (inactive)
19,CC(=O)N[C@@H](Cc1c[nH]c2ccccc12)C(=O)OCc1cc(C(F)(F)F)cc(C(F)(F)F)c1,70.4% (inactive)
20,CNCCCC12CCC(c3ccccc31)c1ccccc12,92.5% (inactive)
21,NC(=Nc1ccccc1)NC(=O)c1nc(Cl)c(N)nc1N,104% (inactive)
22,Fc1ccc(CN(C2=NCCN2)c2c(Cl)cccc2Cl)cc1,92.2% (inactive)
23,C[C@H](N)CN1CCc2ccc(Br)cc21,126% (inactive)
